According to PubChem BioAssay (NCI):
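Tested at 5 concentrations; 48 h exposure; 96-well plates; endpoints linearly interpolated, else capped at highest concentration. Abbreviation: GI50, concentration required for 50% inhibition of growth. Definition used: TGI = concentration required for complete inhibition of growth.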

Legend:
Assay in all cases: NCI tumour cell line growth inhibition, 48 h
[1] = test system: 786-0 renal
[2] = test system: A498 renal
[3] = test system: A549 NSCLC
[4] = test system: ACHN renal
[5] = test system: BT-549 breast
[6] = test system: CAKI-1 renal
[7] = test system: CCRF-CEM leukemia
[8] = test system: COLO 205 colon
[9] = test system: DU-145 prostate
[10] = test system: EKVX NSCLC
[11] = test system: HCC-2998 colon
[12] = test system: HCT-116 colon
[13] = test system: HCT-15 colon
[14] = test system: HL-60(TB) leukemia
[15] = test system: HOP-62 NSCLC
[16] = test system: HOP-92 NSCLC
[17] = test system: HS 578T breast
[18] = test system: HT29 colon
[19] = test system: IGROV1 ovarian
[20] = test system: K-562 leukemia
[21] = test system: KM12 colon
[22] = test system: LOX IMVI melanoma
[23] = test system: M14 melanoma
[24] = test system: MALME-3M melanoma
[25] = test system: MCF7 breast
[26] = test system: MDA-MB-231 breast
[27] = test system: MDA-MB-435
[28] = test system: MOLT-4 leukemia
[29] = test system: NCI-H226 lung
[30] = test system: NCI-H23 lung
[31] = test system: NCI-H460 lung
[32] = test system: NCI-H522 lung
[33] = test system: NCI/ADR-RES ovarian
[34] = test system: OVCAR-3 ovarian
[35] = test system: OVCAR-4 ovarian
[36] = test system: OVCAR-5 ovarian
[37] = test system: OVCAR-8 ovarian
[38] = test system: PC-3 prostate
[39] = test system: RPMI-8226 leukemia
[40] = test system: RXF 393 renal
[41] = test system: SF-268 CNS
[42] = test system: SF-295 CNS
[43] = test system: SF-539 CNS
[44] = test system: SK-MEL-2 melanoma
[45] = test system: SK-MEL-28 melanoma
[46] = test system: SK-MEL-5 melanoma
[47] = test system: SK-OV-3 ovarian
[48] = test system: SN12C renal
[49] = test system: SNB-19 CNS
[50] = test system: SNB-75 CNS
[51] = test system: SR leukemia
[52] = test system: SW-620 colon
[53] = test system: T-47D breast
[54] = test system: TK-10 renal
[55] = test system: U251 CNS
[56] = test system: UACC-257 melanoma
[57] = test system: UACC-62 melanoma
[58] = test system: UO-31 renal

COc1ccc2c(c1)C(=O)c1c-2n(CCCCl)c(=O)c2cc(OC)c(OC)cc12
GI50 [1]: 5.41 µM | TGI [1]: 31.7 µM | GI50 [2]: > 52.5 µM | TGI [2]: > 100 µM | GI50 [3]: 12 µM | TGI [3]: > 100 µM | GI50 [4]: 3.28 µM | TGI [4]: 14 µM | GI50 [5]: > 100 µM | TGI [5]: > 100 µM | GI50 [6]: 6.47 µM | TGI [6]: > 24.4 µM | GI50 [7]: 2.02 µM | GI50 [8]: > 100 µM | TGI [8]: > 100 µM | GI50 [9]: 4.01 µM | TGI [9]: > 48.1 µM | GI50 [10]: > 100 µM | TGI [10]: > 100 µM | GI50 [11]: 17.4 µM | TGI [11]: > 95.9 µM | GI50 [12]: 8.68 µM | TGI [12]: > 100 µM | GI50 [13]: > 96.4 µM | TGI [13]: > 100 µM | GI50 [14]: 4.11 µM | TGI [14]: 18 µM | GI50 [15]: 5.13 µM | TGI [15]: > 51.3 µM | GI50 [16]: > 32.6 µM | TGI [16]: > 86.4 µM | GI50 [17]: > 77.2 µM | TGI [17]: > 100 µM | GI50 [18]: > 52.1 µM | TGI [18]: > 100 µM | GI50 [19]: 17.1 µM | TGI [19]: > 100 µM | GI50 [20]: 32.4 µM | TGI [20]: > 100 µM | GI50 [21]: > 54.2 µM | TGI [21]: > 100 µM | GI50 [22]: 6.87 µM | TGI [22]: > 61.9 µM | GI50 [23]: 6.24 µM | TGI [23]: > 100 µM | GI50 [24]: 18.6 µM | TGI [24]: > 96.1 µM | GI50 [25]: 6.27 µM | TGI [25]: > 100 µM | GI50 [26]: > 100 µM | TGI [26]: > 100 µM | GI50 [27]: 42.5 µM | TGI [27]: > 100 µM | GI50 [28]: 2.55 µM | TGI [28]: 6.29 µM | GI50 [29]: > 79.1 µM | TGI [29]: > 100 µM | GI50 [30]: 15.5 µM | TGI [30]: > 100 µM | GI50 [31]: 2.4 µM | TGI [31]: > 100 µM | GI50 [32]: 9.12 µM | TGI [32]: > 95 µM | GI50 [33]: 11.6 µM | TGI [33]: > 100 µM | GI50 [34]: 82.3 µM | TGI [34]: > 100 µM | GI50 [35]: > 91.7 µM | TGI [35]: > 100 µM | GI50 [36]: > 100 µM | TGI [36]: > 100 µM | GI50 [37]: 53.4 µM | TGI [37]: > 100 µM | GI50 [38]: 41.5 µM | TGI [38]: > 100 µM | GI50 [39]: 2.14 µM | TGI [39]: 14.5 µM | TGI [40]: > 21.1 µM | GI50 [41]: 8.63 µM | TGI [41]: > 100 µM | GI50 [42]: 3.99 µM | TGI [42]: > 100 µM | GI50 [43]: 6.29 µM | TGI [43]: > 57.3 µM | GI50 [44]: > 100 µM | TGI [44]: > 100 µM | GI50 [45]: > 79.4 µM | TGI [45]: > 100 µM | GI50 [46]: 9.2 µM | TGI [46]: 30.1 µM | GI50 [47]: 28.6 µM | TGI [47]: > 100 µM | GI50 [48]: 6.67 µM | TGI [48]: > 100 µM | GI50 [49]: 13.2 µM | TGI [49]: > 100 µM | GI50 [50]: > 24.7 µM | TGI [50]: > 75.5 µM | GI50 [51]: 1.39 µM | TGI [51]: 6.62 µM | GI50 [52]: 19.6 µM | TGI [52]: > 100 µM | GI50 [53]: 13.5 µM | TGI [53]: > 100 µM | GI50 [54]: > 70.2 µM | TGI [54]: > 100 µM | GI50 [55]: 5.95 µM | TGI [55]: > 100 µM | GI50 [56]: 45.3 µM | TGI [56]: > 100 µM | GI50 [57]: 4.6 µM | TGI [57]: > 100 µM | GI50 [58]: 8.4 µM | TGI [58]: > 100 µM
